In patent publication US20200239530A1, “COMPOUNDS AND METHODS OF MODULATING PROTEIN DEGRADATION” (Vividion Therapeutics, Inc., priority 2017, published 2020):

Columns and labels:
[1] = target: T1, AKAP1 A-kinase anchor protein 1, mitochondrial (Homo sapiens, UniProt Q92667); test: Cysteine liganding, probe competition; format: binding
T1 construct: Cells were resuspended in cold PBS on ice and sonicated with a probe sonicator to achieve lysis; endogenous in cells
T1 sequence (Q92667 30-903): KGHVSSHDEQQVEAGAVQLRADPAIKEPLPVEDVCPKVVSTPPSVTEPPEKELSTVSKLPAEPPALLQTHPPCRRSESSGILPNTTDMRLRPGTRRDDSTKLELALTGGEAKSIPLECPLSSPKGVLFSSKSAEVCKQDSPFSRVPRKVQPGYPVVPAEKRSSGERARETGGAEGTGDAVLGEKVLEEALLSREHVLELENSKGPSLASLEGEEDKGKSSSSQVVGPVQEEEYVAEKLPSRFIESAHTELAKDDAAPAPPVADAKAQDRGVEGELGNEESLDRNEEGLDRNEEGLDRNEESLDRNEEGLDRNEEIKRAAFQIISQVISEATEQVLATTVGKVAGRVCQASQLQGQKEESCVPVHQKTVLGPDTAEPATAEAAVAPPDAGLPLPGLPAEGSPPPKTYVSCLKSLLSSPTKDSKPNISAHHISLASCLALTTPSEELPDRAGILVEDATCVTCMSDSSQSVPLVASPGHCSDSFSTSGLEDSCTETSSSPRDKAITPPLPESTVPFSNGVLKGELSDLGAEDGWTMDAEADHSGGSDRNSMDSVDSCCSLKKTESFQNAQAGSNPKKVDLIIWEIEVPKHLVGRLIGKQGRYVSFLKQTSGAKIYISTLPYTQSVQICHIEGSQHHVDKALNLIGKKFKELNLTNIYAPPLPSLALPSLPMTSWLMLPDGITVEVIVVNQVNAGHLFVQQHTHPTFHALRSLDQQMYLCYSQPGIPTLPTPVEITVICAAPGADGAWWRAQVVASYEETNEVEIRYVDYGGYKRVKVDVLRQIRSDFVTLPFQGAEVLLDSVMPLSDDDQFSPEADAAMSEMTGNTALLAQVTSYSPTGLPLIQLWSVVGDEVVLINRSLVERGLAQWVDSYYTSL
Outline: (§1)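 Lysates from probe-sonicated cells in PBS (5 mg/ml proteome) were exposed to compound for 1 hr at 25° C, then labelled with desthiobiotin iodoacetamide probe (10 mM stock) for 1 hr at 25° C. Probe-tagged peptides were streptavidin-enriched after trypsin digestion.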

[2] = target: T2, E3 ubiquitin-protein ligase pellino homolog 1 (PELI1) (Homo sapiens, UniProt Q96FA3); test: Cysteine liganding, probe competition; format: binding
T2 construct: Cells were resuspended in cold PBS on ice and sonicated with a probe sonicator to achieve lysis; endogenous in cells
T2 sequence (Q96FA3 whole entry): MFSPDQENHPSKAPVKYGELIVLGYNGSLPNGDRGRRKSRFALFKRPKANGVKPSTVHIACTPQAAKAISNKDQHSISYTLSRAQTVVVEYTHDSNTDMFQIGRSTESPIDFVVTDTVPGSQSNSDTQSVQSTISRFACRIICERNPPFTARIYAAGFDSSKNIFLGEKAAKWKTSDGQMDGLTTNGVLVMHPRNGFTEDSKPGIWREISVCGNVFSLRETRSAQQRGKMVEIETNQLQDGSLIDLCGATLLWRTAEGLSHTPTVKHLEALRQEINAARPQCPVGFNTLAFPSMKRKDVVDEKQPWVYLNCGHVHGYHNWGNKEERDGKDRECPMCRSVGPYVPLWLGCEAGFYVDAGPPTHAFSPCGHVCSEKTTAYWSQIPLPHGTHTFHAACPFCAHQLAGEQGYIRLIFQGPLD
Outline: as §1

## COc1ccc2c(c1)CCCN2C(=O)CCl [KB02]
[1]; AKAP1 Res# 376, uniprot Q92667
  Liganded: YES

## C=CC(=O)N(c1ccccc1)c1ccc(Br)cc1 [KB05]
[2]; read-out: KB05_100 uM_percent_inhibition
  inhibition at 100 µM: 2%

## O=C(CCl)Nc1cc(C(F)(F)F)cc(C(F)(F)F)c1 [KBO3]
[2]; 100 uM
  KB03_100 uM_percent_inhibition: 57%
[1]; uniprot Q92667
  100 ave: −0.33
  500 Max: 57.81
  500 ave: 45.04
[1]; uniprot Q92667, in % (unit assumed)
  100 Max: 18.92
